Data on 2 compounds can be found in patent US20210380988A1, “Reducing Prominin2-Mediated Resistance to Ferroptotic Cell Death” (University of Massachusetts, priority 2020, published 2021).

Assay [1] concerns HSF1. Description: HSF1 mRNA, protein, S326 phosphorylation and nuclear localization in MCF10A cells. Format: cell-based. The following applies: 10 uM KRIBB11 with 4HNE or RSL3, 60 minutes.
Assay [2] relates to prominin2. Description: PROM2 mRNA (qPCR) and prominin2 protein (immunoblot) expression in MCF10A cells. It counts as cell-based. The following applies: MCF10A, 10 uM KRIBB11, 25 uM 4HNE or 5 uM RSL3, 60 minutes. The procedure: Biochemical experiments: Immunoblotting and qPCR were performed as described (Brown C W, 2017). Briefly, for immunoblotting, cell lysates were extracted using radioimmunoprecipitation assay (RIPA) buffer (Boston Bioproducts). Extracts were separated by SDS PAGE using the specified antibodies. Immunoprecipitation was performed on lysates isolated using NP-40 buffer (Boston Bioproducts). Lysates were pre-cleared prior to overnight incubation with the primary antibody and protein A agarose beads (Sigma-Aldrich). Immune complexes were separated by SDS PAGE and immunoblotted as described in figure legends. RNA was isolated from cells (BioBasic) and cDNA was generated using the All in One cDNA Synthesis SuperMix (BioScript Solutions). qPCR was performed using a SYBR green master mix (BioScript Solutions). Sequences for primers used were as follows: […]

Assay [3] has as its system HCC1806. The experiment in a line: Viability with RSL3 and KRIBB11 co-treatment. Format: cell-based. The following applies: HCC1806, 10 uM KRIBB11, 24 hours. On the procedure: (§1) Cell-based assays: Assays to assess survival in response to matrix detachment were performed as described (Brown C W, 2017). To assay survival in response to GPX4 inhibition, adherent cells in 96 well plates (1.0×10^4 per well) were treated with either DMSO, RSL3, ML210, FIN56 or erastin for 24 hrs with and without ferrostatin-1 or DFO. Subsequently, cells were fixed in 4% paraformaldehyde (Boston BioProducts), stained with crystal violet (Sigma) and read on a microplate reader (Beckman Colter) at absorbance 595. Absorbances were normalized to DMSO.

The test system of assay [4] is SW480. The experiment in a line: Viability with RSL3 and KRIBB11 co-treatment. It counts as cell-based. As to conditions: SW480, 10 uM KRIBB11, 24 hours. On the procedure:
as §1

Assay [5] deals with SW620. The experiment in a line: Viability with RSL3 and KRIBB11 co-treatment. It counts as cell-based. As to conditions: SW620, 10 uM KRIBB11, 24 hours. The procedure: as §1
Assay [6] has as its system Hs578t cells. Description: Survival of adherent cells in response to GPX4 inhibition (crystal violet). It counts as cell-based. As to conditions: Hs578t. On the procedure:
as §1

For assay [7], the system named is MCF10A cells. The assay is described as above. Format: cell-based. The procedure: as §1
Assay [8] deals with cancer cell lines. As to conditions: across hundreds of cancer cells lines; cited from earlier work.
Assay [9] deals with MDA-MB-231 cells. Description: Survival of adherent cells in response to GPX4 inhibition (crystal violet). It counts as cell-based. The following applies: MDA-MB-231, prominin2 expression construct vs vector control. On the procedure: as §1

`CNc1ccc([N+](=O)[O-])c(Nc2ccc3[nH]ncc3c2)n1` [KRIBB11, N(2)-(1H-indazole-5-yl)-N(6)-methyl-3-nitropyridine-2,6-diamine]: in assay [1], the “expression, phosphorylation and nuclear localization of HSF1” value was “neither the expression, phosphorylation nor nuclear localization of HSF1 was affected”. Moreover, the “upregulation of PROM2 mRNA and prominin2 protein expression in response to either 4HNE or RSL3” value in assay [2] is given as “prevented the upregulation”. Besides, the “ability to resist RSL3-induced ferroptosis when co-treated with RSL3 and KRIBB11” value is given as “significantly reduced” in assay [3]; “significantly reduced” in assay [4]; “significantly reduced” in assay [5]; “significantly reduced” in assay [6] (10 uM KRIBB11, 24 hours). Further, the “death induced by RSL3, FIN56, erastin, or imidazole ketone erastin on chemical inhibition of HSF1” value in assay [7] (otherwise resistant cells, cell line not named at b53, FIG. 16E: MCF10A) is reported as “sensitized otherwise resistant cells to death”.

For the compound `Cc1onc(C(=O)N2CCN(C(c3ccc(Cl)cc3)c3ccc(Cl)cc3)CC2)c1[N+](=O)[O-]` [ML210], the “correlation of high prominin2 expression with response to compound” value in assay [8] is reported as “significantly correlated with resistance”. For the same compound, the “sensitivity to compound in prominin2 knock-down cells compared to control cells” value was “significant increase in sensitivity” in assay [6] (prominin2 siRNA 48 hours, compound 24 hrs) and “significant increase in sensitivity” in assay [7] (MCF10A, prominin2 siRNA 48 hours, compound 24 hrs). Moreover, the “cell death in response to compound with exogenous prominin2 expression” value in assay [9] is “sufficient to inhibit cell death”.
